One assay deals with Neisseria gonorrhoeae. In words: Broth microdilution MIC across streptogramin B:A ratios. In kind it is cell-based. (In general: Broth dilution looks for growth in wells or tubes with falling amounts of substance.)
Assay [1] concerns Streptococcus pneumoniae. In words: MBC assay. Format: cell-based. To be noted: S. pneumoniae strains evaluated.
For the next assay, the system named is Mycoplasma genitalium. In words: MIC across streptogramin B:A ratios (CLSI mycoplasma method). Format: cell-based. The following applies: 10 strains and isolates.
The next assay has as its system Staphylococcus aureus. Put plainly: Broth microdilution MIC across streptogramin B:A ratios. In kind it is cell-based.
Assay [2] relates to Streptococcus pneumoniae. The description is as above. In kind it is cell-based.
The test system of assay [3] is S. aureus BAA-1717 strain. Put plainly: MIC against the infecting strain of the thigh model. To be noted: Staphylococcus aureus, BAA1717.

In brackets after ≈: the same amount, converted by molar mass. Like-named read-outs stand apart in the source and are kept apart here. Positions of bridges follow the written chain, without caps; N, C: chain ends. Non-standard residues stand in square brackets, D forms with d. Residues, ends and D or L forms follow the SMILES beside them. *: point of attachment. NMePhe(4-NMe2) = CN[C@@H](Cc1ccc(N(C)C)cc1)C(=O)O; Pip(4-oxo) = O=C1CCN[C@H](C(=O)O)C1; Picolinoyl(3-OH) = O=C(c1ncccc1O)*; Phg = N[C@H](C(=O)O)c1ccccc1; dAbu = CC[C@@H](N)C(=O)O

For orientation: MIC means the lowest concentration that inhibits growth of the organism. Consider `CC[C@H]1NC(=O)[C@@H](NC(=O)c2ncccc2O)[C@@H](C)OC(=O)[C@H](c2ccccc2)NC(=O)[C@@H]2CC(=O)CCN2C(=O)[C@H](Cc2ccc(N(C)C)cc2)N(C)C(=O)[C@@H]2CCCN2C1=O` [CBA1 100:0, pristinamycin IA] ({Picolinoyl(3-OH)}-T[dAbu]P[NMePhe(4-NMe2)][Pip(4-oxo)][Phg]; ester 1-C), for which the MIC was over 64 µg/mL in the assay with Neisseria gonorrhoeae (strain ATCC 49226); over 64 µg/mL in the assay on Neisseria gonorrhoeae (strain CDC 0167); over 64 µg/mL with Neisseria gonorrhoeae (strain CDC 0175); over 64 µg/mL in the assay on Neisseria gonorrhoeae (strain CDC 0177); over 64 µg/mL with Neisseria gonorrhoeae (strain CDC 0181); 32 µg/mL in the assay with Neisseria gonorrhoeae (strain CDC 0194). For the same compound, the MIC was over 64 µg/mL in the assay with Neisseria gonorrhoeae (strain MMX 6921); 32 µg/mL with Neisseria gonorrhoeae (strain WHO F); over 64 µg/mL with Neisseria gonorrhoeae (strain WHO G); over 64 µg/mL in the assay with Neisseria gonorrhoeae (strain WHO K); 64 µg/mL with Neisseria gonorrhoeae (strain WHO L); 64 µg/mL with Neisseria gonorrhoeae (strain WHO M). In addition, the MIC in the assay on Neisseria gonorrhoeae (strain WHO N) is over 64 µg/mL; with Neisseria gonorrhoeae (strain WHO O), 64 µg/mL; in the assay on Neisseria gonorrhoeae (strain WHO P), over 64 µg/mL; with Neisseria gonorrhoeae (strain WHO U), over 64 µg/mL; with Neisseria gonorrhoeae (strain WHO V), over 64 µg/mL; in the assay on Neisseria gonorrhoeae (strain WHO W), 64 µg/mL. Further, the MIC in the assay with Neisseria gonorrhoeae (strain WHO X) is over 64 µg/mL; in the assay with Neisseria gonorrhoeae (strain WHO Y) it was 32 µg/mL; in the assay with Staphylococcus aureus (strain ATCC 29213), 8 µg/mL; in the assay on Staphylococcus aureus (strain ATCC BAA 977), 16 µg/mL; in the assay with Staphylococcus aureus (strain ATCC BAA-976) it was 8 µg/mL; in the assay with Staphylococcus aureus (strain MMX 2336), 8 µg/mL. In addition, the MIC in the assay with Staphylococcus aureus (strain MMX 3035) is over 64 µg/mL; with Staphylococcus aureus (strain MMX 3037), over 64 µg/mL; with Staphylococcus aureus (strain MMX 3095) it was 8 µg/mL; in the assay with Staphylococcus aureus (strain MMX 3098), 8 µg/mL; with Staphylococcus aureus (strain MMX 3885), 8 µg/mL; in the assay with Staphylococcus aureus (strain MMX 3983) it was over 64 µg/mL. The MIC in the assay with Staphylococcus aureus (strain MMX 4670) was over 64 µg/mL; in the assay on Staphylococcus aureus (strain MMX 5787), over 64 µg/mL; with Staphylococcus aureus (strain NRS 271), 8 µg/mL; in the assay on Staphylococcus aureus (strain NRS 382), over 64 µg/mL; in the assay with Staphylococcus aureus (strain NRS 384) it was 8 µg/mL; in the assay with Streptococcus pneumoniae [2] (strain ATCC 49619), 1 µg/mL. The MIC with Streptococcus pneumoniae [2] (strain ATCC 700677) is 32 µg/mL; with Streptococcus pneumoniae [2] (strain MMX 3031), 0.5 µg/mL; with Streptococcus pneumoniae [2] (strain MMX 3033), 2 µg/mL; in the assay on Streptococcus pneumoniae [2] (strain MMX 4937) it was 1 µg/mL. For the same compound, in the assay on Streptococcus pneumoniae [1], the “Strains against which bactericidal (MBC divided by MIC ≤4)” value is 2 out of the 4. Moreover, in the assay with Mycoplasma genitalium, the MIC range lay within 2 to 16 µg/mL.

Turning to `CC[C@H]1OC(=O)[C@H](C)[C@@H](O[C@H]2C[C@@](C)(OC)[C@@H](O)[C@H](C)O2)[C@H](C)[C@@H](O[C@@H]2O[C@H](C)C[C@H](N(C)C)[C@H]2O)[C@](C)(O)C[C@@H](C)CN(C)[C@H](C)[C@@H](O)[C@]1(C)O` [AZI, Azithromycin, reference compound], the MIC with Neisseria gonorrhoeae (Neisseria gonorrhoeae, ATCC49226, strain ATCC 49226, read-out: MIC) was 0.5 µg/mL; in the assay on Neisseria gonorrhoeae (Neisseria gonorrhoeae, strain CDC 0167, read-out: MIC), 16 µg/mL; in the assay with Neisseria gonorrhoeae (Neisseria gonorrhoeae, strain CDC 0175, read-out: MIC) it was 16 µg/mL; in the assay with Neisseria gonorrhoeae (Neisseria gonorrhoeae, strain CDC 0177, read-out: MIC), 4 µg/mL; in the assay with Neisseria gonorrhoeae (Neisseria gonorrhoeae, strain CDC 0181, read-out: MIC), over 16 µg/mL; in the assay with Neisseria gonorrhoeae (Neisseria gonorrhoeae, strain CDC 0194, read-out: MIC) it was 0.5 µg/mL. Moreover, the MIC is 16 µg/mL with Neisseria gonorrhoeae (Neisseria gonorrhoeae, strain MMX 6921, read-out: MIC); 0.12 µg/mL with Neisseria gonorrhoeae (Neisseria gonorrhoeae, strain WHO F, read-out: MIC); 0.25 µg/mL in the assay with Neisseria gonorrhoeae (Neisseria gonorrhoeae, strain WHO G, read-out: MIC); 0.5 µg/mL in the assay with Neisseria gonorrhoeae (Neisseria gonorrhoeae, strain WHO K, read-out: MIC); 0.5 µg/mL in the assay on Neisseria gonorrhoeae (Neisseria gonorrhoeae, strain WHO L, read-out: MIC); 0.5 µg/mL in the assay on Neisseria gonorrhoeae (Neisseria gonorrhoeae, strain WHO M, read-out: MIC). In addition, the MIC with Neisseria gonorrhoeae (Neisseria gonorrhoeae, strain WHO N, read-out: MIC) is 0.25 µg/mL; with Neisseria gonorrhoeae (Neisseria gonorrhoeae, strain WHO O, read-out: MIC), 0.5 µg/mL; in the assay with Neisseria gonorrhoeae (Neisseria gonorrhoeae, strain WHO P, read-out: MIC) it was 8 µg/mL; in the assay on Neisseria gonorrhoeae (Neisseria gonorrhoeae, strain WHO U, read-out: MIC), 8 µg/mL; with Neisseria gonorrhoeae (Neisseria gonorrhoeae, strain WHO V, read-out: MIC), over 16 µg/mL; with Neisseria gonorrhoeae (Neisseria gonorrhoeae, strain WHO W, read-out: MIC), 0.5 µg/mL. The MIC with Neisseria gonorrhoeae (Neisseria gonorrhoeae, strain WHO X, read-out: MIC) turned out to be 1 µg/mL; with Neisseria gonorrhoeae (Neisseria gonorrhoeae, strain WHO Y, read-out: MIC) it was 1 µg/mL.

`CN[C@H](CC(C)C)C(=O)N[C@H]1C(=O)N[C@@H](CC(N)=O)C(=O)N[C@H]2C(=O)N[C@H]3C(=O)N[C@H](C(=O)N[C@H](C(=O)O)c4cc(O)cc(O)c4-c4cc3ccc4O)[C@H](O)c3ccc(c(Cl)c3)Oc3cc2cc(c3O[C@@H]2O[C@H](CO)[C@@H](O)[C@H](O)[C@H]2O[C@H]2C[C@](C)(N)[C@H](O)[C@H](C)O2)Oc2ccc(cc2Cl)[C@H]1O` [vancomycin] gave an MIC in assay [3] of 1 µg/mL (≈ 0.69 µM).

For `CC(=O)NC[C@H]1CN(c2ccc(N3CCOCC3)c(F)c2)C(=O)O1` [linezolid], the MIC in assay [3] was found to be 2 µg/mL (≈ 5.93 µM).

Consider `CC1=C\[C@@H](O)C[C@@H](F)Cc2nc(co2)C(=O)N2CCC[C@@H]2C(=O)O[C@H](C(C)C)[C@H](C)/C=C/C(=O)NC\C=C\1` [CBA1 0:100, flopristin], for which the MIC in the assay with Neisseria gonorrhoeae (strain ATCC 49226) amounted to 0.12 µg/mL; with Neisseria gonorrhoeae (strain CDC 0167) it was 0.03 µg/mL; in the assay on Neisseria gonorrhoeae (strain CDC 0175), 0.03 µg/mL; with Neisseria gonorrhoeae (strain CDC 0177) it was 0.06 µg/mL; in the assay on Neisseria gonorrhoeae (strain CDC 0181) it was 0.12 µg/mL; in the assay on Neisseria gonorrhoeae (strain CDC 0194), 0.06 µg/mL. In addition, the MIC in the assay with Neisseria gonorrhoeae (strain MMX 6921) came to 0.12 µg/mL; in the assay with Neisseria gonorrhoeae (strain WHO F), 0.015 µg/mL; with Neisseria gonorrhoeae (strain WHO G), 0.12 µg/mL; with Neisseria gonorrhoeae (strain WHO K) it was 0.25 µg/mL; in the assay on Neisseria gonorrhoeae (strain WHO L), 0.12 µg/mL; in the assay with Neisseria gonorrhoeae (strain WHO M), 0.12 µg/mL. For the same compound, the MIC in the assay with Neisseria gonorrhoeae (strain WHO N) amounted to 0.12 µg/mL; with Neisseria gonorrhoeae (strain WHO O), 0.12 µg/mL; in the assay on Neisseria gonorrhoeae (strain WHO P), 0.5 µg/mL; with Neisseria gonorrhoeae (strain WHO U), 0.12 µg/mL; in the assay on Neisseria gonorrhoeae (strain WHO V), 0.25 µg/mL; in the assay with Neisseria gonorrhoeae (strain WHO W) it was 0.12 µg/mL. Besides, the minimum inhibitory concentration (MIC) with Neisseria gonorrhoeae (strain WHO X) worked out at 0.12 µg/mL; with Neisseria gonorrhoeae (strain WHO Y) it was 0.12 µg/mL; in the assay on Staphylococcus aureus (strain ATCC 29213), 1 µg/mL; in the assay with Staphylococcus aureus (strain ATCC BAA 977), 1 µg/mL; in the assay with Staphylococcus aureus (strain ATCC BAA-976) it was 0.5 µg/mL; in the assay with Staphylococcus aureus (strain MMX 2336), 0.5 µg/mL. Besides, the MIC with Staphylococcus aureus (strain MMX 3035) stood at 0.5 µg/mL; in the assay with Staphylococcus aureus (strain MMX 3037), 0.25 µg/mL; in the assay on Staphylococcus aureus (strain MMX 3095), 1 µg/mL; in the assay on Staphylococcus aureus (strain MMX 3098) it was 1 µg/mL; with Staphylococcus aureus (strain MMX 3885), 0.5 µg/mL; with Staphylococcus aureus (strain MMX 3983), 0.5 µg/mL. Also, the MIC came to 0.25 µg/mL in the assay with Staphylococcus aureus (strain MMX 4670); 2 µg/mL in the assay on Staphylococcus aureus (strain MMX 5787); 2 µg/mL with Staphylococcus aureus (strain NRS 271); 1 µg/mL in the assay on Staphylococcus aureus (strain NRS 382); 1 µg/mL with Staphylococcus aureus (strain NRS 384); 2 µg/mL with Streptococcus pneumoniae [2] (strain ATCC 49619). Further, the MIC turned out to be 8 µg/mL with Streptococcus pneumoniae [2] (strain ATCC 700677), 4 µg/mL in the assay on Streptococcus pneumoniae [2] (strain MMX 3031), 4 µg/mL with Streptococcus pneumoniae [2] (strain MMX 3033) and 2 µg/mL with Streptococcus pneumoniae [2] (strain MMX 4937). Moreover, the “Strains against which bactericidal (MBC divided by MIC ≤4)” value with Streptococcus pneumoniae [1] is 5 out of the 5. Further, the MIC range in the assay on Mycoplasma genitalium fell in the range of 0.015 to 0.5 µg/mL.

For the origin of these results see patent publication US20250099536A1, “PRISTINAMYCIN IA AND FLOPRISTIN COMBINATIONS IN TREATING OR PREVENTING BACTERIAL INFECTIONS” (AIMMAX THERAPEUTICS, INC., priority 2021, published 2025).
